This is an account of results in ChEMBL document CHEMBL1201862, “PubChem BioAssay data set” (2004).

In data set [1] the target is T1, Short transient receptor potential channel 4 (Mus musculus, UniProt Q9QUQ5).
T1 sequence (Q9QUQ5 whole entry): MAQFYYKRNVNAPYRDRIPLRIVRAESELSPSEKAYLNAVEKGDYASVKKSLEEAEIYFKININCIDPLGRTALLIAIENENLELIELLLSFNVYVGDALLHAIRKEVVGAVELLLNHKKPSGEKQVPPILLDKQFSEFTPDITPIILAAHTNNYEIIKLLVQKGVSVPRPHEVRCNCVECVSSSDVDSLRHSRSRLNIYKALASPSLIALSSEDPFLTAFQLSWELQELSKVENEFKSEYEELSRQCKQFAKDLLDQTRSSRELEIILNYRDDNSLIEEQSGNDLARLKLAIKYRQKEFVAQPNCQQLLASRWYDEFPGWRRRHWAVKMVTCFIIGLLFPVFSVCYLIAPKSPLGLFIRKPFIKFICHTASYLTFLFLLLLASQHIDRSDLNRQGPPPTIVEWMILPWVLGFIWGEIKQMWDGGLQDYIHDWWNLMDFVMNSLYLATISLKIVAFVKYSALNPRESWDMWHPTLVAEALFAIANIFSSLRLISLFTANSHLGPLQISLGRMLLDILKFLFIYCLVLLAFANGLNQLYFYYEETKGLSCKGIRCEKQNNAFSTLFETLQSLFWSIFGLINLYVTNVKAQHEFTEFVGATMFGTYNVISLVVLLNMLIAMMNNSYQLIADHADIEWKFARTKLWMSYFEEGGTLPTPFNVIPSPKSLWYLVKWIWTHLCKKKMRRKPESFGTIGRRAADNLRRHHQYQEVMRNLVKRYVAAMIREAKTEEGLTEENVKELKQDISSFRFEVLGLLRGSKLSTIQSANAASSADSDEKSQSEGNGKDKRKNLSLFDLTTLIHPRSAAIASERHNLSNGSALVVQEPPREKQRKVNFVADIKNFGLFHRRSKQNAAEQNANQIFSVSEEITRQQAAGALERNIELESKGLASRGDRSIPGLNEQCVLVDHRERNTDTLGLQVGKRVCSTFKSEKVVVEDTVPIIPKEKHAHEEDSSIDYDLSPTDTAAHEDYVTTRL
The data set is described as follows: calcium entry via TRPC4 opening agents – cell-based, HEK293 TRPC4/mu-opioid, Fluo-4 calcium, dose response (AID 434937). It is filed as functional.

Data set [2] addresses T2, Heat shock factor protein 1 (Mus musculus, UniProt P38532).
T2 sequence (P38532 whole entry): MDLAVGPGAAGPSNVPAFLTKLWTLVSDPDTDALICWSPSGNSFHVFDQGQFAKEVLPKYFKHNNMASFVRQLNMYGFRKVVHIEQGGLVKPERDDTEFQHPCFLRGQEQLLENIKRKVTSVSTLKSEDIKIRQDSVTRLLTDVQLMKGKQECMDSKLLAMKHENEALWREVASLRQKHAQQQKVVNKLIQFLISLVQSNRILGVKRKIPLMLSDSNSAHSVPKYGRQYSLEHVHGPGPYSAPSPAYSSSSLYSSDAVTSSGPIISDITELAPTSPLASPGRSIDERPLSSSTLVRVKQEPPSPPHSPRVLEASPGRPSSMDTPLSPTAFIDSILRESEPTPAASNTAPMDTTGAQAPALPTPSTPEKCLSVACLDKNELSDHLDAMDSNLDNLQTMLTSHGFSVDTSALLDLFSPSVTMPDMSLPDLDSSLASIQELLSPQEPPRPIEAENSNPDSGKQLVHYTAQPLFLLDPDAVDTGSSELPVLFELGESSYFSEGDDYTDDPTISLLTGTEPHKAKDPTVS
The data set is described as follows: decrease of HSF1-responsive luciferase luminescence – cell-based, NIH3T3, dose retest, confirmation (AID 2382).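 Note: NIH3T3 fibroblasts with HSF1-driven luciferase reporter stressed by proteasome inhibitor MG132; luminescence from HSF1-driven luciferase expression after 8 hours of MG132 stress.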 It is filed as functional.

Data set [3] addresses Voltage-dependent T-type calcium channel subunit alpha-1H (Homo sapiens, UniProt O95180). It is filed as functional.
For data set [4], the system named is Streptococcus sp. 'group A'. The data set is described as follows: Streptococcus pyogenes SK(-)GAS viability under kanamycin – luminescence, BacTiterGlo, confirmation, counter-screen for streptokinase expression inhibitor project, dose response (AID 1900). The class given is functional, organism-based. In general terms: A counterscreen serves to expose hits that act by an unwanted route or on another target.

Another data set deals with Streptococcus. The data set is described as follows: GAS UMAA2166 growth inhibition – luminescence, BacTiterGlo, counter-screen for streptokinase expression inhibitor project, dose response (AID 1915).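 Note: potency for reduction of bacterial viability or growth.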 The class given is functional, organism-based.
The next data set has as its target Cytochrome P450 2C19 (Homo sapiens, UniProt P33261). The data set is described as follows: Cytochrome panel assay with activity outcomes. Panel member name: p450-cyp2c19 Compounds with AC50 equal or less than 10 uM are considered active. The class given is functional. To be noted: read-out: AC50.
For a further data set, the target named is T3, Cytochrome P450 1A2 (Homo sapiens, UniProt P05177).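 Note: PubChem cytochrome P450 panel assay, CYP1A2 panel member.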
T3 sequence (P05177 whole entry): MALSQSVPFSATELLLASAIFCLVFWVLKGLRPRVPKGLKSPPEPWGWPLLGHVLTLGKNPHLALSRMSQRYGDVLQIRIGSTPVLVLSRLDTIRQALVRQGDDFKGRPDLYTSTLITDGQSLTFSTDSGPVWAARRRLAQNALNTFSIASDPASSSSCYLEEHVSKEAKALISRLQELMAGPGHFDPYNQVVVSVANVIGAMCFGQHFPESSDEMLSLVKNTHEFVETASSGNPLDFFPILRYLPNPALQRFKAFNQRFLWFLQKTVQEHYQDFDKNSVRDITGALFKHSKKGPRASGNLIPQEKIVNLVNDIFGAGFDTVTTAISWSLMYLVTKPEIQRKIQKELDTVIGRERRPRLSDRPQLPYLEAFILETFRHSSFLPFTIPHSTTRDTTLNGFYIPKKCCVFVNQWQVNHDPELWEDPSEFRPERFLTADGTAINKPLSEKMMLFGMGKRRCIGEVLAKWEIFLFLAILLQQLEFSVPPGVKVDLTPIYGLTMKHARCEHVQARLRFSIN

The target in data set [5] is T4, Cytochrome P450 2C9 (Homo sapiens, UniProt P11712).
T4 sequence (P11712 whole entry): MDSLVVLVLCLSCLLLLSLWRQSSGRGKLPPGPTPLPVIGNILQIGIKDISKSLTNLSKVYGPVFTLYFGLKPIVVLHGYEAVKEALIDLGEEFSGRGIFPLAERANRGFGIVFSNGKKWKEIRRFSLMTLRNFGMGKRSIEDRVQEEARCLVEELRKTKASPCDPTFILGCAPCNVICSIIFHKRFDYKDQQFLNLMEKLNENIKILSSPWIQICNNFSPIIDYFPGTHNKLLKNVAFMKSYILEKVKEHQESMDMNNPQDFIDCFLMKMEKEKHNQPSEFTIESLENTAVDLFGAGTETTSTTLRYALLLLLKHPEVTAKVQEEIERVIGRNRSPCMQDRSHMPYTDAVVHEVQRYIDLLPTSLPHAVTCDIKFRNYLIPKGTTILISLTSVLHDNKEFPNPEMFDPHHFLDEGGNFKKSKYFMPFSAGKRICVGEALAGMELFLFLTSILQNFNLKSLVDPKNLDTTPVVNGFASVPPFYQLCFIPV
The target of the next data set is T5, Aminopeptidase N (Plasmodium falciparum FcB1/Columbia, UniProt O96935).
T5 sequence (O96935 whole entry): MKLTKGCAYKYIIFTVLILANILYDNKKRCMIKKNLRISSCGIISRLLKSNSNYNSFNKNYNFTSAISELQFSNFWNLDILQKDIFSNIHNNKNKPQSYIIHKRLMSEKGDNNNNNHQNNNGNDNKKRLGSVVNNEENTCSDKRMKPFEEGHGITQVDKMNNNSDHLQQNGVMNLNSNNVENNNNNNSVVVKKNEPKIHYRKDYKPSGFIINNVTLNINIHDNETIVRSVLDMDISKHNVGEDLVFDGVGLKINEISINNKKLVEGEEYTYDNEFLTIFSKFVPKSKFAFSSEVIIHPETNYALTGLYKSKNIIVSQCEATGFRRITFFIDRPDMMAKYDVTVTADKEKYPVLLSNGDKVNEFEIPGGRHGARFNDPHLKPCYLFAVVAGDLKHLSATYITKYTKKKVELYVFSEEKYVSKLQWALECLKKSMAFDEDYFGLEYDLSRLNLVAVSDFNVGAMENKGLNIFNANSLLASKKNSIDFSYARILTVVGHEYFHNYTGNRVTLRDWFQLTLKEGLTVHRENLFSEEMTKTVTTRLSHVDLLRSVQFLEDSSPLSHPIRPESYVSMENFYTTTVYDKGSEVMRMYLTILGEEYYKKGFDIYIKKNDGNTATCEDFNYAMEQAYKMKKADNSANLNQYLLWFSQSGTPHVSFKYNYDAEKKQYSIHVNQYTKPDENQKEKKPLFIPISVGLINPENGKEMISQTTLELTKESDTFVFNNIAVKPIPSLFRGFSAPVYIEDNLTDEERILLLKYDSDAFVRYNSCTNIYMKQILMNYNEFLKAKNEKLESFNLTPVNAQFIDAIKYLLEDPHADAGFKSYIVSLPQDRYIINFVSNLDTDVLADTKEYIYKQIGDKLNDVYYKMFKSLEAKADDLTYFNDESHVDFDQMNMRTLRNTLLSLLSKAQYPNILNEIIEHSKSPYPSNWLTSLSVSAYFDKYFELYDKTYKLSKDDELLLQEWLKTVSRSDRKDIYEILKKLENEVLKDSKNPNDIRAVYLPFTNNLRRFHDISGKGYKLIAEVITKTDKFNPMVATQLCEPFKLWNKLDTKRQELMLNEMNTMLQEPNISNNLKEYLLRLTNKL
Briefly: malaria alanyl aminopeptidase activity blockers – biochemical, fluorogenic H-Leu-NHMec substrate, 1536-well (AID 1445). More on the design: species or system Plasmodium falciparum 3D7, 3D7.

For data set [6], the target named is T4, Cytochrome P450 2C9. This is another data set of the same source.
The test system of a further data set is H9c2. Briefly: cells. The class given is functional, cell-based. To be noted: Rattus norvegicus, H9c2, Myocardium.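 Note: confirmatory concentration-response retest of ultra-high-throughput screening hits for modulation of myocardial damage; cell death induced by hydrogen peroxide oxidative stress; compound pretreatment for 60 min then peroxide exposure for 2 h; potency is for protecting the cells against peroxide damage rather than for killing them.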
The nature of data set [7]: Luminescence Cell-Based Dose Retest to Confirm Inhibitors of Cancer Stem Cells. [Related pubchem assays (depositor defined):AID2717, AID2721]. Particulars: Homo sapiens. The class given is functional.
A further data set relates to Vero. Briefly: viability of Vero cells under compound – cytotoxicity control for flavivirus capping enzyme inhibitors (AID 588742). It is filed as functional. To be noted: Chlorocebus sabaeus.
The next data set concerns the target Genome polyprotein (dengue virus type 2, UniProt P29990). Briefly: flavivirus cap methylation enzyme inhibition – biochemical, confirmation dose response, primary screen (AID 588689). The class given is functional.

The structures appear in SMILES notation. Calls of active or inactive are those of the source.

Sequence of Voltage-dependent T-type calcium channel subunit alpha-1H (O95180 whole entry): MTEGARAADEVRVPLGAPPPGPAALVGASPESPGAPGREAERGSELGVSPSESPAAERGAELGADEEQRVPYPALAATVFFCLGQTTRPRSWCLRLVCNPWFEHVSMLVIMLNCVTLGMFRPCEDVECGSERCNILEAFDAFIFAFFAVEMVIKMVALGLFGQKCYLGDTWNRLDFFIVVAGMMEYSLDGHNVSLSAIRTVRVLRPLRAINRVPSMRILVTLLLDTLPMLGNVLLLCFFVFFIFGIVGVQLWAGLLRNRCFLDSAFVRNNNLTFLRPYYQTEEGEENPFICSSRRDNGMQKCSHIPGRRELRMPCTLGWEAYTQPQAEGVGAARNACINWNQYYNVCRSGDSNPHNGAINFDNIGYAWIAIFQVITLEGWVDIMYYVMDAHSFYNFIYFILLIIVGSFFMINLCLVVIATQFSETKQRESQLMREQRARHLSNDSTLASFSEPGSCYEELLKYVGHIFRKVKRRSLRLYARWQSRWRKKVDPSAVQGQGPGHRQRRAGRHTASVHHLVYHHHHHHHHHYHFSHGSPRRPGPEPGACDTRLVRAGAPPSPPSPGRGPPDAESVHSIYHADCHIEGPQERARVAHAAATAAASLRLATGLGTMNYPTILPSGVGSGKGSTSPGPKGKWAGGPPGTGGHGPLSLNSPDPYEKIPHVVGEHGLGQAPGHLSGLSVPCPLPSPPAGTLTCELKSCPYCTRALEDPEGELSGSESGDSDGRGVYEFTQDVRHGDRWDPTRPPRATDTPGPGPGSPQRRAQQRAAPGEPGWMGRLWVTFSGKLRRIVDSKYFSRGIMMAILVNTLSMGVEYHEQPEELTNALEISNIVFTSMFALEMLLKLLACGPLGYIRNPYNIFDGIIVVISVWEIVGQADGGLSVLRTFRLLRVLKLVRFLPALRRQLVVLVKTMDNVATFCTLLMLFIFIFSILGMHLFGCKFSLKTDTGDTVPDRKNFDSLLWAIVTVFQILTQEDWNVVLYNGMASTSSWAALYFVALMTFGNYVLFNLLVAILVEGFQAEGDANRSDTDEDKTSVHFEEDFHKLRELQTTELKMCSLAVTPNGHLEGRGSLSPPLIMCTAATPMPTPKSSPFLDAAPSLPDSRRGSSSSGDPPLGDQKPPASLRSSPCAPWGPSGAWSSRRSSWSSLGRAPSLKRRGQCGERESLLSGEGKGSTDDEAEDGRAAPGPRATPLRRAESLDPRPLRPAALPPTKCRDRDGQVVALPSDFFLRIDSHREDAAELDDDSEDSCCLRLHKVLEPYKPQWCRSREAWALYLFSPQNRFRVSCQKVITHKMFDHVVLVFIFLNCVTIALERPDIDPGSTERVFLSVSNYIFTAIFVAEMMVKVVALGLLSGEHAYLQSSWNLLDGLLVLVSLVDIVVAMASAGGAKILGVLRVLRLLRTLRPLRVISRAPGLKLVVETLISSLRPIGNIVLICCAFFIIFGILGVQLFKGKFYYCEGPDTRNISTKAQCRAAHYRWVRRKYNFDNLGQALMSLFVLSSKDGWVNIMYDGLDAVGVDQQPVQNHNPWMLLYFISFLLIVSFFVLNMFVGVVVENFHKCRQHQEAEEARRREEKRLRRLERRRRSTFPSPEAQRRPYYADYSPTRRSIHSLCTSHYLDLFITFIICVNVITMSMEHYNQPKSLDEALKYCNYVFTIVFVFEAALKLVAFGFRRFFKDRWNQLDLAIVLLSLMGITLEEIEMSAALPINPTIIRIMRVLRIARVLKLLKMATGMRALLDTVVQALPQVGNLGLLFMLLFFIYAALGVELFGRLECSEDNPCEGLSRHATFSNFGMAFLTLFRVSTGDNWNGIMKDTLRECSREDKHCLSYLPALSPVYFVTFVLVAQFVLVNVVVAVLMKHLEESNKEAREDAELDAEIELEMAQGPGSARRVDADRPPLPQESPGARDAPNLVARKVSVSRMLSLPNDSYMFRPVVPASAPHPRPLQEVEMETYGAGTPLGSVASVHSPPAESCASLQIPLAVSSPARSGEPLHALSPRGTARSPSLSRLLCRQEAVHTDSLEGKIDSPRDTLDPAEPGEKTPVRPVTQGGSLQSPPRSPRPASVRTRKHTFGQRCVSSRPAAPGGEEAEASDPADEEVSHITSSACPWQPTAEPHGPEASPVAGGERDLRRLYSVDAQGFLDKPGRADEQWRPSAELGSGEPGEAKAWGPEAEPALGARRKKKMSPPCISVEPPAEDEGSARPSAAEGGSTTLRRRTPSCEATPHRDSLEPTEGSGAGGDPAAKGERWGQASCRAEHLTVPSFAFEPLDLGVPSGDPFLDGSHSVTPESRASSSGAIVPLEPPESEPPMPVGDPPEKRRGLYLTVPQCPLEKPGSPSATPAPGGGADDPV
Sequence of Genome polyprotein (P29990 2492-3391 limits assumed): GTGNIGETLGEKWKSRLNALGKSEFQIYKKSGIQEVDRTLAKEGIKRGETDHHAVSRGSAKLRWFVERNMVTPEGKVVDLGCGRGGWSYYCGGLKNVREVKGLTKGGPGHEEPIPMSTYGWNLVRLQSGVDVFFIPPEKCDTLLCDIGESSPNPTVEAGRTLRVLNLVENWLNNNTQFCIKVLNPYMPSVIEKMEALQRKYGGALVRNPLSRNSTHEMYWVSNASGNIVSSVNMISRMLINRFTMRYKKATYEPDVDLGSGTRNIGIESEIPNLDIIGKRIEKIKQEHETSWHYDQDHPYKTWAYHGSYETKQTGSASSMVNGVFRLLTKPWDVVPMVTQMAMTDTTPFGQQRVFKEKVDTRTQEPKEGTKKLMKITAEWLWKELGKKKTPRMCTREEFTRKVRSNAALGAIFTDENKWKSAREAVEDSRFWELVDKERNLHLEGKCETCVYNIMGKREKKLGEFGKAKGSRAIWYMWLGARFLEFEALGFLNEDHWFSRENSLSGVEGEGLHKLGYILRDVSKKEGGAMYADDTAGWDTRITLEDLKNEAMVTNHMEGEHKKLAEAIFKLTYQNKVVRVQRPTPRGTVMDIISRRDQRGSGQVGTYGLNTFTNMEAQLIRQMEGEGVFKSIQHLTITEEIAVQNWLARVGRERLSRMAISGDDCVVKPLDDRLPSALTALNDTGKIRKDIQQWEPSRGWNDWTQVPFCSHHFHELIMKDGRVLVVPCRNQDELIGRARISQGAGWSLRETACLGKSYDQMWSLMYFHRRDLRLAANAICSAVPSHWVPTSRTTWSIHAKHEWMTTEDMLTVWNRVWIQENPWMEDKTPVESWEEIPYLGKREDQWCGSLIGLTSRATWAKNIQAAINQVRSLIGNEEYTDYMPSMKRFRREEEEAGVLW
Sequence of Cytochrome P450 2C19 (P33261 whole entry): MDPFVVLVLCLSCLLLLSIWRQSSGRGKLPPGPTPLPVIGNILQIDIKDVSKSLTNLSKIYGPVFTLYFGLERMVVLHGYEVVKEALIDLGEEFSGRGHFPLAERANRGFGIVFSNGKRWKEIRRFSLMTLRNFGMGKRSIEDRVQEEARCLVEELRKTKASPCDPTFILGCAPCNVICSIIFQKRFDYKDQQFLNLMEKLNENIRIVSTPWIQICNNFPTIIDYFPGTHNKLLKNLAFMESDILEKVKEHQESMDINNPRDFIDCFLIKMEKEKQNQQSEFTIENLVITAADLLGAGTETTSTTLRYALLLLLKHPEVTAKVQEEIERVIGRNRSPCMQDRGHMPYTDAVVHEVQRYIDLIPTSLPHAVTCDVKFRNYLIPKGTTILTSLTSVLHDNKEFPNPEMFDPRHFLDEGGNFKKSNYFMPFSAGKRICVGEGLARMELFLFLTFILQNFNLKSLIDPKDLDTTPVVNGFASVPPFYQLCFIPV

What is called EC50 is the concentration at which the effect is half-maximal. For the compound `Cc1ccc(C)c(NC(S)=NCCc2c[nH]cn2)c1`, in data set [1], the EC50 was 2.66 µM (active).

In the case of `Cc1ccc(-n2nc(C)c3c2NC(=O)CSC3c2ccc3c(c2)OCO3)cc1` (stereo not drawn), the 50% effective concentration (EC50) is > 195 µM (not active) in [2] and 6.71 µM (active) in [3].

As for `CCCc1ccc(OCC(=O)NNC(=S)NC(=O)c2ccco2)cc1`, the half-maximal effective concentration (EC50) was 0.069 µM (active) in data set [4], 1.39 µM (active) in the data set on Streptococcus and 6.68 µM (active) in data set [1].

As usually defined, the AC50 is the concentration at which the activity in the assay is half-maximal. With `Fc1ccc(N2CCN(c3ccc4c(C(F)(F)F)cc(C(F)(F)F)nc4n3)CC2)cc1`, the EC50 in data set [3] is 4.13 µM (active). The AC50 at Cytochrome P450 2C19 is 22.4 µM (inconclusive); at Cytochrome P450 1A2, 5.01 µM (inconclusive); at Cytochrome P450 2C9 [5] it was “inconclusive”.

A word on the IC50: it is the concentration that gives 50% inhibition. For the compound `Cc1ccc(S(=O)(=O)c2nc(NCCN(C)C)sc2Cl)cc1`, the IC50 at Aminopeptidase N was 12.7 µM (active).

`O=C(CSc1nc2ccsc2c(=O)n1NC(=O)c1ccccc1)NCc1ccco1`: the IC50 at Aminopeptidase N was 72.1 µM (active).

`CSc1cccc(NC(=O)CN(c2ccc(C)cc2C)S(C)(=O)=O)c1`: the EC50 in [3] is 4.13 µM (active).

For `NS(=O)(=O)c1ccc(N2N=C(c3ccccc3)CC2c2cccc(F)c2)cc1` (stereo not drawn), the IC50 on Aminopeptidase N was 47.6 µM (active).

For the compound `O=C(CS(=O)(=O)Cc1ccccc1)N1CCN(c2cccc(C(F)(F)F)c2)CC1`, the IC50 on Aminopeptidase N is 105 µM (active).

In the case of `CCCCN(CCCC)CP(=O)(c1ccccc1)c1ccccc1`, in data set [3], the EC50 is 11.4 µM (active).

As for `Cc1cccc(-c2nc(CN3CCCC(C(=O)NC4CCCCC4)C3)c(C)o2)c1` (stereo not drawn), the EC50 in data set [3] was 2.14 µM (active). The AC50 at Cytochrome P450 1A2 was 20 µM (inconclusive); at Cytochrome P450 2C9 [6], 28.2 µM (inconclusive).

As for `O=C(CCn1nc(-c2ccccc2)c2ccccc2c1=O)N1CCN(c2ccccc2)CC1`, in data set [3], the EC50 is 7.63 µM (active). Besides, the IC50 with H9c2 was > 79 µM (inactive).

Take `Cc1ccc(NC(S)=NCCc2c[nH]cn2)cc1C`: the EC50 in data set [1] was 0.267 µM (active).

In the case of `O=C(c1cccs1)N1CCN(c2ncc(Br)cn2)CC1`, the EC50 in data set [1] is 0.668 µM (active).

For orientation: CC50 means the concentration giving 50% cytotoxicity. With `Cc1[nH]n(-c2ncc(-c3ccc(Cl)cc3)s2)c(=O)c1C(c1ccc(Cl)cc1)C(C#N)C#N` (stereo not drawn), in data set [7], the AC50 is 2.97 µM (active). In addition, the CC50 with Vero is > 40 µM (active). Moreover, the IC50 at Genome polyprotein is 23 µM (active).

For `COc1ccc(/N=c2\oc3c(OC)cccc3cc2C(=O)NCc2ccco2)c(OC)c1`, the CC50 with Vero was > 40 µM (active). For the same compound, the IC50 on Genome polyprotein was 40.8 µM (active).
